{"source": "patent US10016424B2", "about": "“Method and pharmaceutical composition for use in the treatment of epilepsy” (INSERM (Institut National de la Sante et de la Recherche …, priority 2013, dated 2018)", "key": {"[1]": {"test_system": "dentate gyrus of organotypic slices", "assay": "Spontaneous interictal-like activity, extracellular field recordings in pilocarpine-treated organotypic hippocampal slice cultures", "assay_type": "cell-based, mouse", "description": "Hippocampal/entorhinal cortex slices (350 μm) were prepared from pre-genotyped GluK2−/− and WT mice (P9-10, FVB/N background) using a McIlwain tissue chopper. Slices were placed on mesh inserts (Millipore # PICMORG50) inside culture dishes containing 1 ml of the following medium: MEM 50%, HS 25%, HBSS 25%, HEPES 15 mM glucose 6.5 mg/ml and insulin 0.1 mg/ml. Culture medium was changed every 2-3 days and slices maintained in an incubator at 37° C./5% CO2. Pilocarpine (0.5 μM) was added to the medium at 5 D.I.V and removed at 7 D.I.V; slices were utilized for experiments from 9 D.I.V.\nCultured or acute slices were individually transferred to a recording chamber maintained at 30-32° C. and continuously perfused (2 ml/min) with oxygenated normal or adapted ACSF containing 5 μM gabazine. Local field potentials were made in the granule cell layer of the DG with glass electrodes (2-3 MΩ; filled with normal ACSF) using a DAM-80 amplifier (low filter, 1 Hz; […], 3 KHz; World Precision Instruments, Sarasota, Fla.). For evoked synaptic transmission, electrical stimulation was performed with a bipolar NiCh electrode (#762000, AM systems). Whole-cell voltage-clamp recordings of DGCs were made using tight-seal electrodes (5-8 MΩ) filled with an internal solution containing the following (in mM): 135 gluconic acid, 135 CsOH, 10 MgCl2, 0.1 CaCl2, 1 EGTA, 10 HEPES, 2 MgATP, 0.4 NaGTP, and 0.5% biocytin, pH 7.25. We used a Multiclamp 700B amplifier (Molecular Devices): data were filtered at 2 kHz, digitized (20 kHz) with a Digidata 1440A (Molecular Devices) to a PC, and acquired using Clampex 10.1 software (PClamp, Molecular Devices). Signals were analyzed off-line using Clampfit 9.2 (PClamp) and MiniAnalysis 6.0.1 (Synaptosoft, Decatur, Ga.). In organotypic slices, spontaneous EPSCs were recorded at the reversal potential for GABAergic currents (Vh=−70 mV). To characterize the nature and kinetic properties of fast and slow events, miniature EPSCs (mEPSCs) evoked in Sr2+ conditions (external Ca2+ was substituted with 1.2 mM Sr2+) were recorded in DGCs from GluK2−/− and WT slices. Electrical stimulation was made in the molecular layer in the continued presence of 5 μM gabazine and 40 μM D-APV; asynchronous mEPSCs were measured during the 300 ms period after the stimulus artifact. […] In cultured slices, visual representation of time-frequency analysis of local field potentials was performed using Autosignal software (Seasolve 1.7). In brief, field activity was highpass-filtered (>100 Hz) and time-frequency analysis performed using a continuous wavelet (Morlet) that reported integrated power (time-integral-squared amplitude, TISA) across time. Filtered traces were also analyzed by Fourier analysis (Hamming) using Clampfit 9.2. In acute hippocampal slices, intensity of antidromically-evoked bursts was quantified using coastline index (Epsztein et al., 2005).\nThe role of KARs in spontaneous epileptiform activity was then tested using extracellular field recordings in cultured slices. Recordings were performed in 5 mM K+-containing ACSF and in the presence of 5 μM gabazine in order to enhance neuronal excitability and to reliably record stereotyped spontaneous interictal-like activity (Berdichevsky et al., 2012)."}, "[2]": {"test_system": "pilocarpine-status epilepticus model of chronic TLE", "assay": "Interictal spikes, in vivo local field potential recordings in DG of anesthetized pilocarpine-treated mice", "design": "species or system mouse", "description": "All experiments were approved by the Institut National de la Santé et de la Recherche Médicale animal care and use committee of May 29, 2001 (2001-464) and the European community council directive of Nov. 24, 1986 (86/609/EEC). Mice (FVB/N background) had access to food and water ad libitum and were housed under a 12 h light/dark cycle at 22-24° C. Male GluK2−/− and WT mice (P60-80) were given scopolamine (1 mg/kg) subcutaneously (s.c.) 15 minutes prior to s.c. administration of pilocarpine (200-600 mg/kg). A ramp protocol was used whereby animals were given an initial dose of 200 mg/kg followed by half-doses every 30 minutes until seizures appeared. Both WT and GluK2−/− mice typically experienced at least two seizures prior to entering status epilepticus (SE). Diazepam (10 mg/kg) was administered 45 minutes after onset of SE.\nNaïve wildtype (WT) and pilocarpine-treated WT or GluK2−/− mice (5-6 months old) were anaesthetized with xylazine 13 mg/kg/ketamine 66 mg/kg and placed in a stereotaxic frame (supplemental dosing was administered as required). Body temperature was maintained using a heating pad. The scalp was removed and a small bone window was drilled above the hippocampus (2.1 mm posterior to bregma and 1.4 mm lateral to midline over the right hemisphere). For local field potentials recordings performed in anaesthetized mice, a glass electrode ([…]) filled with Ringer solution (135 mM NaCl, 5.4 mM KCl, 1 mM MgCl2, 1.8 mM CaCl2, 5 mM HEPES) was inserted into the DG (depth, 1650 μm). Recordings were performed using a DAM-80 amplifier (low filter, 1 Hz; high filter, 3 KHz; World Precision Instruments, Sarasota, Fla.). UBP310 or vehicle (saline/10% DMSO) was subsequently injected intraperitoneally (i.p.). During recordings and subsequent analysis, the experimenter was blind to the genotype. For intrahippocampal electroencephalographic (EEG) recordings performed in freely-moving animal a stainless steel electrode (Plastic one, Roanoke, Va.) was inserted into the DG under anesthesia (see above). After a 4 day recovery, EEG (amplified (1000×), filtered at 0.16-97 Hz pass, acquired at 500 Hz) was monitored using a telemetric system (Data Sciences International, St. Paul, Minn.) for 4 days, 24 h per day. Intrahippocampal EEG traces represented the difference in potential between the electrode inserted into the DG and an electrode positioned above the cerebellum; food and water were given ad libitum. UBP310 or vehicle (saline/10% DMSO) was injected intraperitoneally twice a day.\nIn TLE, interictal spikes (ISs) represent one of the best documented biomarkers of epilepsy in patient and animal models (Staley et al., 2005). […]"}, "[3]": {"test_system": "dentate gyrus of organotypic slices", "assay": "Spontaneous interictal-like activity, extracellular field recordings in pilocarpine-treated organotypic hippocampal slice cultures", "assay_type": "cell-based, mouse", "conditions": "P=0.902, n=6"}, "[4]": {"conditions": "slices from WT mice, 10 μM SYM2081 or 5 μM UBP310"}}}
{"molecule": "Cc1cn(C[C@H](N)C(=O)O)c(=O)n(Cc2ccsc2C(=O)O)c1=O", "note": "[UBP310]", "values": [{"measurement": "effect on interictal-like activity in GluK2-/- mice slices", "setting": "[1]; GluK2-/- slices, P=0.563, n=7", "result": "no effect"}, {"measurement": "alteration of the PD phase (power of paroxysmal discharge)", "setting": "[1]; [4]", "result": "No significant alteration"}, {"measurement": "reduction of power of the bursts in the late MB phase", "setting": "[1]; [4]", "result": 67, "unit": "%"}, {"measurement": "reduction of frequency of interictal-like activity", "setting": "[1]; slices from WT mice, 10 μM SYM2081 or 5 μM UBP310, 5 mM K+ ACSF, 5 μM gabazine", "result": 49, "unit": "%"}, {"measurement": "frequency of interictal-like activity", "setting": "[1]; slices from WT mice, 10 μM SYM2081 or 5 μM UBP310, without antagonist 3.2±0.4, mean±SEM", "result": "1.47±0.4", "unit": "events/min"}, {"measurement": "reduction of number of interictal spikes (ISs)", "setting": "[2]; 60 mg/kg intraperitoneal, WT epileptic mice, anesthetized", "result": 64, "unit": "%"}, {"measurement": "change in IS amplitude", "setting": "[2]; 60 mg/kg intraperitoneal, WT epileptic mice, data not shown", "result": "no change in amplitude"}, {"measurement": "effect on number of ISs in GluK2-/- mice", "setting": "[2]; 60 mg/kg, GluK2-/- mice, P=0.497", "result": "no effect"}, {"measurement": "effect on IS number at dose reduced by 10 times", "setting": "[2]; injected dose reduced by 10 times from 60 mg/kg, P=0.548", "result": "no significant effect"}, {"measurement": "reduction of frequency of interictal-like activity in GluK1-/- versus WT mice", "setting": "[3]", "result": "similarly effective"}]}
